Source: patent US20260014130A1, “FORMULATIONS OF CAPSID INHIBITOR” (Gilead Sciences, Inc., priority 2024, published 2026)

How the values were obtained:
[1] = cited from earlier work
[2] = in vivo, sc; cited from earlier work
HIV = conditions: twice-yearly SC 927 mg (two 1.5 mL injections of 309 mg/mL), oral loading 600 mg days 1 and 2; cited from earlier work
HIV-1 = test: In vitro protein binding-adjusted 95% effective concentration (paEC95) and inhibitory quotient; type: cell-based

## CC(C)(C#Cc1ccc(-c2ccc(Cl)c3c(NS(C)(=O)=O)nn(CC(F)(F)F)c23)c([C@H](Cc2cc(F)cc(F)c2)NC(=O)Cn2nc(C(F)(F)F)c3c2C(F)(F)[C@@H]2C[C@H]32)n1)S(C)(=O)=O [lenacapavir]
[1]; observed previously, well tolerated
  systemic lenacapavir exposures relative to those achieved with the intramuscular formulations: approximately 3 fold
[1]; supratherapeutic total dose of 9600 mg of oral lenacapavir
  mean Cmax: 1070.4 ng/mL
[2]
  highest observed mean concentration: 72.1 ng/mL
HIV
  efficacy in cisgender men and gender-diverse people: 99.9%
  efficacy in cisgender women: 100%
HIV-1
  in vitro paEC95 (protein binding-adjusted 95% effective concentration): 3.87 ng/mL
HIV-1; plasma concentration threshold
  inhibitory quotient-4 (IQ4; 4-fold in-vitro protein binding-adjusted 95% effective concentration): 15.5 ng/mL
